Results taken from PubChem BioAssay AID1259407 (Chemical Carcinogenesis Research Information System (CCRIS), 2018).
Active and inactive are the calls of the source. How the calls were made is not given here.

System: CCRIS mutagenicity, Ames/micronucleus/aberration tests
Assay: CCRIS mutagenicity studies
[1] = Test System: AMES SALMONELLA TYPHIMURIUM, Strain/Indicator: TA98(1,8-DNP6), Metabolic Activation: NONE, Method: STANDARD PLATE
[2] = Test System: AMES SALMONELLA TYPHIMURIUM, Strain/Indicator: TA98, Metabolic Activation: NONE, Method: STANDARD PLATE
[3] = Test System: AMES SALMONELLA TYPHIMURIUM, Strain/Indicator: TA98, Metabolic Activation: NONE, Method: PREINCUBATION
[4] = Test System: AMES SALMONELLA TYPHIMURIUM, Strain/Indicator: TA100, Metabolic Activation: NONE, Method: PREINCUBATION
[5] = Test System: AMES SALMONELLA TYPHIMURIUM, Strain/Indicator: TA1535, Metabolic Activation: NONE, Method: PREINCUBATION
[6] = Test System: AMES SALMONELLA TYPHIMURIUM, Strain/Indicator: TA98, Metabolic Activation: RAT, LIVER, S-9, AROCLOR 1254, Method: STANDARD PLATE
[7] = Test System: AMES SALMONELLA TYPHIMURIUM, Strain/Indicator: TA100, Metabolic Activation: NONE, Method: STANDARD PLATE
[8] = Test System: AMES SALMONELLA TYPHIMURIUM, Strain/Indicator: TA100, Metabolic Activation: RAT, LIVER, S-9, AROCLOR 1254, Method: STANDARD PLATE

O=C1OCCN1N=Cc1ccc([N+](=O)[O-])o1
mutagenic call (End Point: In vivo micronucleus, Test System: Bone marrow polychromatic erythrocytes, Species: Rat, Strain/Sex: Sprague-Dawley/Female, Route: Oral): inactive; positive (p</=0.05 for mononuclei; p</=0.01 for binuclei for furazolidone alone;
mutagenic call [1]: active; positive
mutagenic call (Test System: AMES SALMONELLA TYPHIMURIUM, Strain/Indicator: TA98(1,8-DNP6), Metabolic Activation: RAT, LIVER, S-9, 3-METHYLCHOLANTHRENE, Method: STANDARD PLATE): active; positive
mutagenic call (Test System: AMES SALMONELLA TYPHIMURIUM, Strain/Indicator: TA98(NR), Metabolic Activation: NONE, Method: STANDARD PLATE): active; positive
mutagenic call (Test System: AMES SALMONELLA TYPHIMURIUM, Strain/Indicator: TA98(NR), Metabolic Activation: RAT, LIVER, S-9, 3-METHYLCHOLANTHRENE, Method: STANDARD PLATE): active; positive
mutagenic call (Test System: AMES SALMONELLA TYPHIMURIUM, Strain/Indicator: TA98, Metabolic Activation: NONE): active; positive
mutagenic call [2]: active; positive
mutagenic call (Test System: AMES SALMONELLA TYPHIMURIUM, Strain/Indicator: TA98, Metabolic Activation: RAT, LIVER, S-9, 3-METHYLCHOLANTHRENE, Method: STANDARD PLATE): active; positive
mutagenic call (Test System: AMES SALMONELLA TYPHIMURIUM, Strain/Indicator: TA98, Metabolic Activation: S-9): active; positive
mutagenic call (Test System: AMES SALMONELLA TYPHIMURIUM, Strain/Indicator: TA100, Metabolic Activation: NONE): active; positive
mutagenic call (Test System: AMES SALMONELLA TYPHIMURIUM, Strain/Indicator: TA100, Metabolic Activation: S-9): active; positive
mutagenic call (Test System: CHINESE HAMSTER OVARY, Strain/Indicator: CHO-AS52, Metabolic Activation: NONE): inactive; negative
mutagenic call (Test System: CHINESE HAMSTER OVARY, Strain/Indicator: CHO-AS52, Metabolic Activation: RAT, LIVER, S-9, 3-METHYLCHOLANTHRENE): inactive; negative
mutagenic call (Test System: CHINESE HAMSTER OVARY, Strain/Indicator: CHO-K1-BH4, Metabolic Activation: NONE): active; positive
mutagenic call (Test System: CHINESE HAMSTER OVARY, Strain/Indicator: CHO-K1-BH4, Metabolic Activation: RAT, LIVER, S-9, 3-METHYLCHOLANTHRENE): active; positive
mutagenic call (Test System: CHINESE HAMSTER OVARY, Strain/Indicator: CHO-UV5, Metabolic Activation: NONE): active; positive
mutagenic call (Test System: CHINESE HAMSTER OVARY, Strain/Indicator: CHO-UV5, Metabolic Activation: RAT, LIVER, S-9, 3-METHYLCHOLANTHRENE): active; positive
mutagenic call (Test System: E. COLI, Strain/Indicator: TC3960, Metabolic Activation: NONE, Method: PREINCUBATION): active; positive
mutagenic call (Test System: E. COLI, Strain/Indicator: WP2, Metabolic Activation: NONE, Method: SPOT): active; positive
mutagenic call (Test System: E. COLI, Strain/Indicator: WP2 UVRA, Metabolic Activation: NONE, Method: SPOT): active; positive

O=C1NCNC(=O)N1
mutagenic call (Test System: AMES SALMONELLA TYPHIMURIUM, Strain/Indicator: TA98, Metabolic Activation: MAIZE SEEDLING, S-14, Method: PREINCUBATION): active; positive
mutagenic call (Test System: AMES SALMONELLA TYPHIMURIUM, Strain/Indicator: TA98, Metabolic Activation: MOUSE, LIVER, S-9, Method: PREINCUBATION): active; positive
mutagenic call [3]: inactive; negative
mutagenic call (Test System: AMES SALMONELLA TYPHIMURIUM, Strain/Indicator: TA100, Metabolic Activation: MAIZE SEEDLING, S-14, Method: PREINCUBATION): active; positive
mutagenic call (Test System: AMES SALMONELLA TYPHIMURIUM, Strain/Indicator: TA100, Metabolic Activation: MOUSE, LIVER, S-9, Method: PREINCUBATION): inactive; negative
mutagenic call [4]: inactive; negative
mutagenic call [5]: inactive; negative
mutagenic call (Test System: AMES SALMONELLA TYPHIMURIUM, Strain/Indicator: TA1537, Metabolic Activation: NONE, Method: PREINCUBATION): inactive; negative
mutagenic call (Test System: AMES SALMONELLA TYPHIMURIUM, Strain/Indicator: TA1538, Metabolic Activation: NONE, Method: PREINCUBATION): inactive; negative

Cc1cc2ncccc2c2nc(N=[N+]=[N-])n(C)c12
mutagenic call [1]: active; positive
mutagenic call [2]: active; positive

Cl/C=C(/Cl)c1c(Cl)c(Cl)c(Cl)c(Cl)c1Cl
mutagenic call [2]: inactive; negative
mutagenic call [6]: inactive; negative
mutagenic call [7]: inactive; negative
mutagenic call [8]: inactive; negative

O=[N+]([O-])c1ccc(CCO)cc1
mutagenic call (Test System: AMES SALMONELLA TYPHIMURIUM, Strain/Indicator: TA97, Metabolic Activation: HAMSTER, LIVER, S-9, AROCLOR 1254 (10%), Method: PREINCUBATION): inactive; negative
mutagenic call (Test System: AMES SALMONELLA TYPHIMURIUM, Strain/Indicator: TA97, Metabolic Activation: NONE, Method: PREINCUBATION): inactive; negative
mutagenic call (Test System: AMES SALMONELLA TYPHIMURIUM, Strain/Indicator: TA97, Metabolic Activation: RAT, LIVER, S-9, AROCLOR 1254 (10%), Method: PREINCUBATION): inactive; negative
mutagenic call (Test System: AMES SALMONELLA TYPHIMURIUM, Strain/Indicator: TA98, Metabolic Activation: HAMSTER, LIVER, S-9, AROCLOR 1254 (10%), Method: PREINCUBATION): active; positive
mutagenic call [3]: active; positive
mutagenic call (Test System: AMES SALMONELLA TYPHIMURIUM, Strain/Indicator: TA98, Metabolic Activation: RAT, LIVER, S-9, AROCLOR 1254 (10%), Method: PREINCUBATION): active; positive
mutagenic call (Test System: AMES SALMONELLA TYPHIMURIUM, Strain/Indicator: TA100, Metabolic Activation: HAMSTER, LIVER, S-9, AROCLOR 1254 (10%), Method: PREINCUBATION): active; positive
mutagenic call [4]: inactive; negative
mutagenic call (Test System: AMES SALMONELLA TYPHIMURIUM, Strain/Indicator: TA100, Metabolic Activation: RAT, LIVER, S-9, AROCLOR 1254 (10%), Method: PREINCUBATION): active; positive
mutagenic call (Test System: AMES SALMONELLA TYPHIMURIUM, Strain/Indicator: TA1535, Metabolic Activation: HAMSTER, LIVER, S-9, AROCLOR 1254 (10%), Method: PREINCUBATION): active; positive
mutagenic call [5]: inactive; negative
mutagenic call (Test System: AMES SALMONELLA TYPHIMURIUM, Strain/Indicator: TA1535, Metabolic Activation: RAT, LIVER, S-9, AROCLOR 1254 (10%), Method: PREINCUBATION): active; positive

CC(=O)[CH-]C(=O)c1ccccc1.CC(=O)[CH-]C(=O)c1ccccc1.CC[O-].CC[O-].[Ti+4]
mutagenic call [2]: inactive; negative
mutagenic call [6]: inactive; negative
mutagenic call [7]: inactive; negative
mutagenic call (Test System: AMES SALMONELLA TYPHIMURIUM, Strain/Indicator: TA100, Metabolic Activation: RAT, LIVER, S-9, AROCLOR 1254, Method: PREINCUBATION): inactive; negative
mutagenic call [8]: inactive; negative
mutagenic call (Test System: AMES SALMONELLA TYPHIMURIUM, Strain/Indicator: TA1535, Metabolic Activation: NONE, Method: STANDARD PLATE): inactive; negative
mutagenic call (Test System: AMES SALMONELLA TYPHIMURIUM, Strain/Indicator: TA1535, Metabolic Activation: RAT, LIVER, S-9, AROCLOR 1254, Method: PREINCUBATION): inactive; negative
mutagenic call (Test System: AMES SALMONELLA TYPHIMURIUM, Strain/Indicator: TA1535, Metabolic Activation: RAT, LIVER, S-9, AROCLOR 1254, Method: STANDARD PLATE): inactive; negative
mutagenic call (Test System: AMES SALMONELLA TYPHIMURIUM, Strain/Indicator: TA1537, Metabolic Activation: NONE, Method: STANDARD PLATE): inactive; negative
mutagenic call (Test System: AMES SALMONELLA TYPHIMURIUM, Strain/Indicator: TA1537, Metabolic Activation: RAT, LIVER, S-9, AROCLOR 1254, Method: STANDARD PLATE): inactive; negative
mutagenic call (Test System: AMES SALMONELLA TYPHIMURIUM, Strain/Indicator: TA1538, Metabolic Activation: NONE, Method: STANDARD PLATE): inactive; negative
mutagenic call (Test System: AMES SALMONELLA TYPHIMURIUM, Strain/Indicator: TA1538, Metabolic Activation: RAT, LIVER, S-9, AROCLOR 1254, Method: STANDARD PLATE): inactive; negative

CN(N=O)C(=O)Oc1cccc2c1OC(C)(C)C2
mutagenic call (End Point: IN VIVO MICRONUCLEUS, Test System: BONE MARROW POLYCHROMATIC ERYTHROCYTES, Species: MOUSE, Strain/Sex: KM/MALE, FEMALE, Route: IP INJECTION): active; positive

c1cc2ccc3cccc4ncc(c1)c2c34
mutagenic call [6]: active; positive
mutagenic call [8]: active; positive
